# Measured values: US20150175666A1, “PEPTIDES DERIVED FROM HIV GP41 FOR TREATING T-CELL MEDIATED PATHOLOGIES” (Yeda Research and Development Co. Ltd., priority 2012, published 2015)
# Assays:
# [1] = system: human red blood cells (RBCs); experiment: Hemolysis of human red blood cells; assay type: cell-based; conditions: up to 100-fold IC50, maximal concentration examined (100 μM, 1 hr)
# Method: Fresh human red blood cells (RBCs) were rinsed two times with PBS, followed by centrifugation for 7 min at 2000 rpm and resuspension in PBS. Peptides, at various concentrations, were dissolved in PBS and added to 50 μl of the stock hemolysis of human red blood cell (hRBC) solution in PBS for a final volume of 100 μl (final erythrocyte concentration, 4% (v/v)). The resulting suspension was incubated with agitation for 60 min at 37° C. The samples were then centrifuged at 2000 rpm for 7 min. The release of hemoglobin was monitored by measuring the absorbance of the supernatant at 540 nm. Controls for zero hemolysis (blank) and 100% hemolysis consisted of hRBCs suspended in PBS and PBS with 1% Triton, respectively.
# Hemolysis of red blood cells (RBCs) is often used to detect membranolytic activity of peptides. Hemolytic activity was measured by the release of hemoglobin into the media (OD 540 nm). Triton (1% v/v) served as a control for a hemolytic agent. Importantly, the peptide was not hemolytic up to 100-fold more than the IC50 of the peptide, the maximal concentration examined (FIG. 3H).
# [2] = system: T cells (Jurkat T cells, MOG35-55-specific T cells); experiment: XTT cytotoxicity assay; assay type: cell-based, human and murine; conditions: up to maximal concentration examined (20 μM, FIG. 3G)
# Method: Aliquots of 2.5×10^4 of the cells (from Jurkat E6-1, T-cell line) were distributed onto a 96-well plate (Falcon) in the presence of various peptide concentrations and incubated for 24 h. Wells in the last two columns served as blank (medium only), and 100% survival controls (cells and medium only), respectively. After incubation, the XTT reaction solution benzene sulfonic acid hydrate and N-methyl dibenzopyrazine methyl sulfate, mixed in a proportion of 50:1, was added for 2 more hr. Optical density was read at a 450-nm wavelength in an enzyme-linked immunoabsorbent assay plate reader. LC50 (the concentration at which 50% of the cells die) was determined relative to the control, 2.5×10^4 cells in medium. All assays were performed in duplicate.
# The viability of the cells was analyzed by an XTT cytotoxicity assay. The peptide was not toxic to T cells up to 20-fold more than the IC50 of the peptide, the maximal concentration examined (FIG. 3G).
# [3] = In vivo toxicity in naïve mice; design: species or system C57BL mice; conditions: 50 mg/kg i.v., n=3
# Method: First, the toxicity of the peptide was investigated by injecting naïve C57BL mice i.v. with 50 mg/kg of the peptides. […] Then, C57Bl/6J mice that were induced to develop clinical EAE by immunization with MOG35-55/CFA were given a dose of the peptide that was 100-fold less than the one examined in the toxicity assay, i.e. 10 μg per mouse (0.5 mg/kg), or PBS as a control. On day 10 post immunization, prior to the onset of clinical signs of EAE, the lymph node cells (LNCs) from each treatment group were cultured for 72 h in microtiter wells in triplicate (0.5×10^6/well) in the absence or presence of MOG35-55 (2.5 or 5 μg/ml; SEQ ID NO: 15). [H3] Thymidine was added for the last 18 h. The LNCs were analyzed ex vivo for their recall proliferative response to the immunizing MOG35-55 peptide and for secretion of pro-inflammatory cytokines.
smiles,measurement,setting,value
"CC[C@H](C)[C@H](NC(=O)[C@H](CCC(N)=O)NC(=O)[C@H](CCC(=O)O)NC(=O)[C@H](CC(C)C)NC(=O)[C@H](CO)NC(=O)[C@H](CCCCN)NC(=O)[C@H](CC(N)=O)NC(=O)[C@@H](N)CO)C(=O)N[C@@H](Cc1c[nH]c2ccccc12)C(=O)N[C@@H](CC(N)=O)C(=O)N[C@@H](Cc1c[nH]cn1)C(=O)N[C@H](C(=O)N[C@H](C(=O)N[C@@H](Cc1c[nH]c2ccccc12)C(=O)N[C@@H](CCSC)C(=O)N[C@@H](CCC(=O)O)C(=O)N[C@@H](Cc1c[nH]c2ccccc12)C(=O)N[C@@H](CC(=O)O)C(N)=O)[C@@H](C)O)[C@@H](C)O [PEP 6, SNKSLEQIWNHTTWMEWD]",hemolytic activity,[1],not hemolytic
same,toxicity to T cells (viability),[2],not toxic
same,toxic effect in mice,[3],No toxic effect
